Results on 25 compounds are retold here after patent publication US10689377B2 (Mirati Therapeutics, Inc., priority 2017, dated 2020).

KRas G12C, sequence (P01116 1-188 isoform P01116-2 G12C): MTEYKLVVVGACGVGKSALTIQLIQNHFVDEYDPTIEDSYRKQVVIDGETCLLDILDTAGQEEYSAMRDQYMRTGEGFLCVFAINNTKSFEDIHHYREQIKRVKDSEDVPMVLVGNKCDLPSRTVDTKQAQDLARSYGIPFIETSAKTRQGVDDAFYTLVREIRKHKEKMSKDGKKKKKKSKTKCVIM

This assay addresses KRas G12C (Homo sapiens, UniProt P01116, G12C). The assay can be described thus: Cellular inhibition of KRas G12C measured by Phospho-ERK in NCI-H358 cells. The class given is cell-based. As to conditions: pERK(Thr202/Tyr204) normalized with GAPDH, NCI-H358 cells, 3 hours; read-out: IC50. A digest of the protocol:
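Ratio of phospho-ERK(Thr202/Tyr204) to GAPDH, read by near-infrared secondary antibodies on fixed, permeabilised NCI-H358 cells, expressed relative to DMSO control. Compound exposure was 3 h at 0.5% DMSO. IC50 values come from 4-parameter curve fits.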
As usually defined, the IC50 is the concentration at which inhibition is half-maximal. As for `C=C(F)C(=O)N1CCN(c2nc(OC[C@@H]3[C@H](O)CC(=O)N3C)nc3c2CCN(c2cccc4cccc(Cl)c24)C3)C[C@@H]1CC#N` [Example 573, 2-[(2S)-4-[7-(8-Chloro-1-naphthyl)-2-[[(2R,3R)-3-hydroxy-1-methyl-5-oxo-pyrrolidin-2-yl]methoxy]-6,8-dihydro-5H-pyrido[3,4-d]pyrimidin-4-yl]-1-(2-fluoroprop-2-enoyl)piperazin-2-yl]acetonitrile], the IC50 was above 1000 nM. The figure for `C=CC(=O)N1CCN(c2nc(OC[C@@H]3CCCN3C)nc3c2CCN(c2ccccc2C(F)(F)F)C3)CC1` [Example 159, (S)-1-(4-(2-((1-methylpyrrolidin-2-yl)methoxy)-7-(2-(trifluoromethyl)phenyl)-5,6,7,8-tetrahydropyrido[3,4-d]pyrimidin-4-yl)piperazin-1-yl)prop-2-en-1-one] is above 1000 nM; for `C=CC(=O)N1CCN(c2nc(OC[C@@H]3CCCN3C)nc3c2CCN(c2cccc4c(F)cccc24)C3)CC1CC#N` (stereo partly drawn) [Example 254, 2-[4-[7-(5-fluoro-1-naphthyl)-2-[[(2S)-1-methylpyrrolidin-2-yl]methoxy]-6,8-dihydro-5H-pyrido[3,4-d]pyrimidin-4-yl]-1-prop-2-enoyl-piperazin-2-yl]acetonitrile] it is 0.1 to 1000 nM. The figure for `C=CC(=O)N1CCN(c2nc(O[C@H](C)CN(C)C)nc3c2CCN(c2cc(O)ccc2OC(F)(F)F)C3)CC1` [Example 78, (R)-1-(4-(2-((1-(dimethylamino)propan-2-yl)oxy)-7-(5-hydroxy-2-(trifluoromethoxy)phenyl)-5,6,7,8-tetrahydropyrido[3,4-d]pyrimidin-4-yl)piperazin-1-yl)prop-2-en-1-one] is above 1000 nM; for `C=CC(=O)N1CCN(c2nc(OCC(C)(C)N(C)C)nc3c2CCN(c2cccc4ccccc24)C3)CC1CC#N` (stereo not shown) [Example 269, 2-(1-acryloyl-4-(2-(2-(dimethylamino)-2-methylpropoxy)-7-(naphthalen-1-yl)-5,6,7,8-tetrahydropyrido[3,4-d]pyrimidin-4-yl)piperazin-2-yl)acetonitrile] it is 0.1 to 1000 nM; for `CN(C)C/C=C/C(=O)N1CCN(c2nc(OC[C@@H]3CCCN3C)nc3c2CCN(c2cc(O)cc4ccccc24)C3)CC1` [Example 199, (S,E)-4-(dimethylamino)-1-(4-(7-(3-hydroxynaphthalen-1-yl)-2-((1-methylpyrrolidin-2-yl)methoxy)-5,6,7,8-tetrahydropyrido[3,4-d]pyrimidin-4-yl)piperazin-1-yl)but-2-en-1-one] it is above 1000 nM. Then `C=CS(=O)(=O)N1CCN(c2nc(OC[C@@H]3CCCN3C)nc3c2CCN(c2cccc(C)c2C)C3)CC1` [Example 343, 7-(2,3-dimethylphenyl)-2-[[(2S)-methylpyrrolidin-2-yl]methoxy]-4-(4-vinylsulfonylpiperazin-1-yl)-6,8-dihydro-5H-pyrido[3,4-d]pyrimidine], with above 1000 nM; and `C=CC(=O)N1CCN(c2nc(OC[C@@H]3CCCN3C)nc3c2CCN(c2cccc4cccn24)C3)C[C@@H]1CC#N` [Example 442, 2-((S)-1-acryloyl-4-(7-(indolizin-5-yl)-2-(((S)-1-methylpyrrolidin-2-yl)methoxy)-5,6,7,8-tetrahydropyrido[3,4-d]pyrimidin-4-yl)piperazin-2-yl)acetonitrile], with 0.1 to 1000 nM. As to `C=CC(=O)N1CCN(c2nc(OC[C@@H]3CCCN3C)nc3c2CCN(c2c(F)ccc4ccccc24)C3)CC1CC#N` (stereo partly drawn) [Example 311, 2-(1-acryloyl-4-(7-(2-fluoronaphthalen-1-yl)-2-(((S)-1-methylpyrrolidin-2-yl)methoxy)-5,6,7,8-tetrahydropyrido[3,4-d]pyrimidin-4-yl)piperazin-2-yl)acetonitrile], the IC50 lay in the range of 0.1 to 1000 nM. Then `C=CC(=O)N1CCN(c2nc(O[C@H](C)CN3CCCCC3)nc3c2CCN(c2cc(O)cc4ccccc24)C3)CC1` [Example 75, (R)-1-(4-(7-(3-hydroxynaphthalen-1-yl)-2-((1-(piperidin-1-yl)propan-2-yl)oxy)-5,6,7,8-tetrahydropyrido[3,4-d]pyrimidin-4-yl)piperazin-1-yl)prop-2-en-1-one], with 0.1 to 1000 nM; and `C=CC(=O)N1CCN(c2nc(OC[C@H]3CCCN3C)nc3c2CCN(c2cccc(Cl)c2C(F)(F)F)C3)C[C@@H]1CC#N` [Example 319, 2-((S)-1-acryloyl-4-(7-(3-chloro-2-(trifluoromethyl)phenyl)-2-(((R)-1-methylpyrrolidin-2-yl)methoxy)-5,6,7,8-tetrahydropyrido[3,4-d]pyrimidin-4-yl)piperazin-2-yl)acetonitrile], with 0.1 to 1000 nM. As to `C=CC(=O)N1CCN(c2nc(OC[C@@H]3CCCN3C)nc3c2CCN(c2cccc4ccccc24)C3)CC1COC` (stereo partly drawn) [Example 256, 1-(2-(methoxymethyl)-4-(2-(((S)-1-methylpyrrolidin-2-yl)methoxy)-7-(naphthalen-1-yl)-5,6,7,8-tetrahydropyrido[3,4-d]pyrimidin-4-yl)piperazin-1-yl)prop-2-en-1-one], the IC50 is above 1000 nM. The figure for `C=C(F)C(=O)N1CCN(c2nc(OC[C@@H]3CCCN3C)nc3c2CCN(c2c(C(F)(F)F)c(C)cc4[nH]ncc24)C3)C[C@@H]1CC#N` [Example 527] is 0.1 to 1000 nM.

On to `C=CC(=O)N1CCN(c2nc(OC[C@H]3C[C@H](F)CN3C)nc3c2CCN(c2cccc(F)c2C(F)(F)F)C3)CC1CC#N` (stereo partly drawn) [Example 417, 2-(1-acryloyl-4-(2-(((2R,4S)-4-fluoro-1-methylpyrrolidin-2-yl)methoxy)-7-(3-fluoro-2-(trifluoromethyl)phenyl)-5,6,7,8-tetrahydropyrido[3,4-d]pyrimidin-4-yl)piperazin-2-yl)acetonitrile], for which the IC50 lay within 0.1 to 1000 nM.

For `C=CC(=O)N1CCN(c2nc(NCCCN3CCOCC3)nc3c2CCN(c2cc(O)cc4ccccc24)C3)CC1` [Example 133, 1-[4-[7-(3-hydroxy-1-naphthyl)-2-(3-morpholinopropylamino)-6,8-dihydro-5H-pyrido[3,4-d]pyrimidin-4-yl]piperazin-1-yl]prop-2-en-1-one], the IC50 was above 1000 nM. The figure for `CN1CCC[C@H]1COc1nc2c(c(N3CCN(C(=O)C#CCO)[C@@H](CC#N)C3)n1)CCN(c1cccc3ccccc13)C2` [Example 474, 2-((S)-1-(4-hydroxybut-2-ynoyl)-4-(2-(((S)-1-methylpyrrolidin-2-yl)methoxy)-7-(naphthalen-1-yl)-5,6,7,8-tetrahydropyrido[3,4-d]pyrimidin-4-yl)piperazin-2-yl)acetonitrile] is 0.1 to 1000 nM; for `C=CC(=O)N1CCN(c2nc(OC[C@H]3CCC(=O)N3)nc3c2CCN(c2cc(O)cc4ccccc24)C3)CC1` [Example 58, (R)-5-(((4-(4-acryloylpiperazin-1-yl)-7-(3-hydroxynaphthalen-1-yl)-5,6,7,8-tetrahydropyrido[3,4-d]pyrimidin-2-yl)oxy)methyl)pyrrolidin-2-one] it is above 1000 nM. The figure for `C=CC(=O)N1CCN(c2nc(OC[C@@H]3[C@@H](O)CCN3C)nc3c2CCN(c2cccc4ccccc24)C3)C[C@@H]1CC#N` [Example 390, 2-((S)-1-acryloyl-4-(2-(((2R,3S)-3-hydroxy-1-methylpyrrolidin-2-yl)methoxy)-7-(naphthalen-1-yl)-5,6,7,8-tetrahydropyrido[3,4-d]pyrimidin-4-yl)piperazin-2-yl)acetonitrile] is 0.1 to 1000 nM; for `C=CC(=O)N1CCN(c2nc(OCCN(C)C)nc3c2CCN(c2cc(O)cc4ccccc24)C3)CC1C(=O)N(C)C` (stereo not shown) [Example 51, 1-acryloyl-4-(2-(2-(dimethylamino)ethoxy)-7-(3-hydroxynaphthalen-1-yl)-5,6,7,8-tetrahydropyrido[3,4-d]pyrimidin-4-yl)-N,N-dimethylpiperazine-2-carboxamide] it is above 1000 nM. On to `C=CC(=O)N1CCN(c2nc(OC[C@@H]3CCCN3C)nc3c2CCN(c2cccc(C)c2C(F)(F)F)C3)CC1CC#N` (stereo partly shown) [Example 265], for which the half-maximal inhibitory concentration (IC50) was in the range of 0.1 to 1000 nM. With `C=C(C(=O)N1CCN(c2nc(OC[C@@H]3CCCN3C)nc3c2CCN(c2cccc(C)c2C)C3)C[C@@H]1CC#N)C(F)(F)F` [Example 487, 2-((S)-4-(7-(2,3-dimethylphenyl)-2-(((S)-1-methylpyrrolidin-2-yl)methoxy)-5,6,7,8-tetrahydropyrido[3,4-d]pyrimidin-4-yl)-1-(2-(trifluoromethyl)acryloyl)piperazin-2-yl)acetonitrile], the IC50 lay within 0.1 to 1000 nM.

Consider `C=CC(=O)N1CCN(c2nc(OC[C@@H]3CCCN3C)nc3c2CCN(c2nncc4ccccc24)C3)C[C@@H]1CC#N` [Example 431, 2-((S)-1-acryloyl-4-(2-(((S)-1-methylpyrrolidin-2-yl)methoxy)-7-(phthalazin-1-yl)-5,6,7,8-tetrahydropyrido[3,4-d]pyrimidin-4-yl)piperazin-2-yl)acetonitrile], for which the IC50 was above 1000 nM. Then `C=CC(=O)N1CCN(c2nc(OCCN3CCCCC3)nc3c2CCN(c2cccc4ccccc24)C3)C[C@@H]1CC#N` [Example 409, (S)-2-(1-acryloyl-4-(7-(naphthalen-1-yl)-2-(2-(piperidin-1-yl)ethoxy)-5,6,7,8-tetrahydropyrido[3,4-d]pyrimidin-4-yl)piperazin-2-yl)acetonitrile], with 0.1 to 1000 nM; and `C=CC(=O)N1CCN(c2nc(OC[C@@H]3CCCN3C)nc3c2CCN(c2cc(OC)cc4ccccc24)C3)C[C@@H]1CC#N` [Example 314, 2-[(2S)-4-[7-(3-methoxy-1-naphthyl)-2-[[(2S)-1-methylpyrrolidin-2-yl]methoxy]-6,8-dihydro-5H-pyrido[3,4-d]pyrimidin-4-yl]-1-prop-2-enoyl-piperazin-2-yl]acetonitrile], with 0.1 to 1000 nM; and `C=CC(=O)N1CCN(c2nc(O[C@@H](C)CN(C)C)nc3c2CCN(c2cc(O)cc4ccccc24)C3)CC1` [Example 8, (S)-1-(4-(2-((1-(dimethylamino)propan-2-yl)oxy)-7-(3-hydroxynaphthalen-1-yl)-5,6,7,8-tetrahydropyrido[3,4-d]pyrimidin-4-yl)piperazin-1-yl)prop-2-en-1-one], with above 1000 nM.
